Assay results taken from patent US10023615B2, “Efficient transport into white blood cells” (priority 2008, dated 2018).
“Also recorded” adds a separate entry of the source. Ends that are not written are not given here.

Experiments:
[1] = test system: bleomycin induced lung fibrosis; assay: Bleomycin (BLM) induced lung fibrosis; format: in vivo, C57BL/6 mice; conditions: for cell recruitment in bronchoalveolar lavage space: 3 times in 10 days
Text: In order to determine the activity of the exemplary all-D retro-inverso IB(s) peptide XG-102 (SEQ ID NO: 233) in the treatment of Chronic Obstructive Pulmonary Disease (COPD) XG-102 (SEQ ID NO: 233) is used in an animal model of Bleomycin induced acute lung inflammation and fibrosis. The protocol of bleomycin induced inflammation and fibrosis has been described before in the literature. The aim of the Experiment was to investigate the effect of XG-102 (SEQ ID NO: 233) by subcutaneous (s.c.) route on neutrophil recruitment in broncho alveolar lavage (BAL) and lung in bleomycin induced inflammation and fibrosis: • at 1 day after a single bleomycin administration (10 mg/kg) • and at day 10 with the development of fibrosis
1) Method and Experimental Approach • The test compound XG-102 (SEQ ID NO: 233) at two doses and vehicle control were given s.c. with a single intranasal administration of bleomycin and mice were analyzed after 1 and 10 days. The animals used in the model were 10 C57BL/6 mice (8 weeks old) per group. The experimental groups included vehicle, 0.001 mg/kg XG-102 (SEQ ID NO: 233) and 0.1 mg/kg XG-102 (SEQ ID NO: 233), and the treatment consisted of repeated sub-cutaneous administration of XG-102 (SEQ ID NO: 233), prior to bleomycin administration then every 3 days. Acute lung inflammation at 24 h was monitored by BAL lavage, cytology, cell counts, and lung myeloperoxidase activity. The effect of the compound was compared with vehicle controls. Lung fibrosis was assessed histologically using hematoxylin and eosin staining at day 10 after the single dose of bleomycin.
1.1) Bleomycin Administration • Bleomycin sulfate in saline (10 mg/kg body weight) from Bellon Laboratories (Montrouge, France) or saline were given through the airways by nasal instillation in a volume of 40 μL under light ketamine-xylasine anesthesia. […]
1.4) Cell Count and Determination • Total cell count was determined in BAL fluid using a Malassez hemocytometer. […]

[2] = test system: noise trauma (120 dB at 6 kHz); assay: Treatment of noise trauma, auditory brainstem response; format: in vivo, guinea pigs; conditions: 100 μM in hyaluronic acid gel on round window membrane; before or after noise trauma
Procedure: 19. […] Untreated ears served as control. Hearing threshold shifts are evaluated by auditory brainstem response measurements 20 minutes after noise trauma (temporary threshold shift, TTS) and 15 days following the trauma (permanent threshold shift, PTS).

In the case of “dqsrpvqpflnIttprkprpprrrqrrkkrg (DQSRPVQPFLNLTTPRKPRPPRRRQRRKKRG; not fully specified (some residues); printed as dqsrpvqpflnIttprkprpprrrqrrkkrg) [XG-102]”, the “cell recruitment in bronchoalveolar lavage space” value ([1]; 0.001 mg/kg s.c.) is reported as “reduced significantly the lymphocyte recruitment and the number of total cells recruited; also recorded: decreases the Bleomycin-induced later inflammation”, the “histology: inflammatory cells accumulation, fibrotic areas, loss of lung architecture” value ([1]; 0.001 mg/kg, day 10) is reported as “A decrease of these parameters was observed; also recorded: attenuates the Bleomycin-induced fibrosis” and the “cell recruitment in bronchoalveolar lavage space” value ([1]; 0.1 mg/kg s.c.) is reported as “had no effect”. The “permanent hearing loss (permanent threshold shift)” value [2] was “protected against permanent hearing loss even if applied after exposure to excessive noise”.
